These are literature values, as cited in patent US20130324497A1, “COMPOSITIONS AND METHODS FOR TREATING HEPATITIS B VIRUS INFECTION” (priority 2012, published 2013).

Entries after “also recorded” stand apart in the source; their conditions may differ. Like-named read-outs stand apart in the source and are kept apart here.

Data set [1] relates to hepatitis B virus. Conditions: for cumulative rate of resistance: 5 years.
The conditions of data set [2]: in vivo.
Data set [3] concerns HBV mutants resistant to lamivudine.

Take `CC(C)(C)C(=O)OCOP(=O)(COCCn1cnc2c(N)ncnc21)OCOC(=O)C(C)(C)C` [adefovir dipivoxil, 9-[2-[[bis[(pivaloyloxy)methoxy]-phosphinyl]-methoxy]ethyl]adenine]: the “cumulative rate of resistance” value in data set [1] (HBeAg negative patients) is on record as around 29%; in data set [1] (HBeAg positive patients), “about 20%”. Further, the “adefovir-associated nephrotoxicity, patients” value in data set [2] is given as “up to 47%”.
Turning to `Nc1ncnc2c1ncn2CCOCP(=O)(O)O` [adefovir], the 5-year resistance rate in data set [1] (5-year, monotherapy) is 20-30%. For the same compound, the “susceptibility of lamivudine-resistant mutants” value in data set [3] is given as “retain susceptibility; also recorded: remain susceptible”.
